The values below come from ChEMBL document CHEMBL2429738, “Synthesis and biological evaluation of biotin conjugates of (±)-(4bS,8aR,10aS)-10a-ethynyl-4b,8,8-trimethyl-3,7-dioxo-3,4b,7,8,8a,9,10,10a-octahydro-phenanthrene-2,6-dicarbonitrile, an activator of the Keap1/Nrf2/ARE pathway, for the isolation of its protein targets” (Bioorg Med Chem Lett, 2013).

For the assay, the target named is NAD(P)H dehydrogenase [quinone] 1 (Mus musculus) (UniProt Q64669). The experiment in a line: Induction of NQO1 activity in mouse Hepa1c1c7 cells assessed as concentration required to double specific enzyme activity after 48 hrs. In kind it is cell-based.
NAD(P)H dehydrogenase [quinone] 1 (Mus musculus), sequence (Q64669 whole entry): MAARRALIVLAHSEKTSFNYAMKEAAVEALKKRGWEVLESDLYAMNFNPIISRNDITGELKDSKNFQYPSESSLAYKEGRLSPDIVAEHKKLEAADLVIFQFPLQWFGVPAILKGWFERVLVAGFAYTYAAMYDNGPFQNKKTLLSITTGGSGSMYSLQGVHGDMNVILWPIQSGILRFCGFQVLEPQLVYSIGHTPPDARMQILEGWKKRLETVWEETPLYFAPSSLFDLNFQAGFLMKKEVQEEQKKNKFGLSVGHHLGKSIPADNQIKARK

Turning to `C#C[C@]12C=C(C#N)C(=O)C=C1[C@@]1(C)C=C(C#N)C(=O)[C@@](C)(CO)[C@@H]1CC2` (racemic), the CD came out at 2.2 nM. In the case of `C#C[C@]12C=C(C#N)C(=O)C=C1[C@@]1(C)C=C(C#N)C(=O)C(C)(C)[C@@H]1CC2` (racemic) it was 1 nM.
